Data published in patent US20100166789A1, “PROTEINS FOR USE IN DIAGNOSING AND TREATING INFECTION AND DISEASE” (The Regents of the University of Colorado, priority 2008, published 2010).
No end group written: not given here. *: point of attachment. Biotin = O=C1N[C@H]2[C@H](CS[C@H]2CCCCC(=O)*)N1

Legend:
[1] = tested on: cell surface bound CLIP on Raji and Daudi cells; experiment: Competition of synthetic peptides with cell surface CLIP (Fitc anti-human CLIP); assay type: cell-based; settings: biotinylated peptides
Description: Based on a computational model comparing the peptide content of TNP mixture and identifying those peptides that would have the likeliest ability to compete for the peptide/antigen binding site for MHC class II (human HLA-DR, DP, and DQ), several peptide candidates were synthesized and examined for activity. The purpose of the study was to determine if synthetic peptides can compete for binding with CLIP peptides as measured with either Fitc anti-human CLIP antibody or, comparatively in the case of biotinylated peptides, with Streptavidin.
Cell Culture Conditions: The Raji and Daudi cell lines were purchased from American Type Culture Collection, were thawed, and grown in RPMI 1640 medium supplemented with standard supplements, including 10% fetal calf serum, gentamycin, penicillin, streptomycin, sodium pyruvate, HEPES buffer, 1-glutamine, and 2-ME.
Protocol: Cells were plated into a 12 well plate with 3 mls total volume containing approximately 1.5×10^6/well for Daudi cells and 3.0×10^6/well for Raji cells. Treatment groups included no treatment as control; MKN 3 and MKN 5 at 50 microMolar final concentration based on the reported molarity of the synthesized compounds.
The cells were incubated at 37° C. in an atmosphere containing 5% CO2 and approximately 92% humidity. The cells were incubated for 4 and 24 hours. At each time point, the cells from that experimental time were harvested and stained for flow cytometric analysis of cell surface expression of CLIP (MHC Class II invariant peptide, human) by using the commercially available (Becton/Dickinson/PHarmingen) anti-human CLIP Fitc. Catalogue #555981 versus Streptavidin.
Harvested cells were stained using standard staining procedure that called for a 1:100 dilution of Fitc-anti-human CLIP or isotype control versus 1:200 dilution of the commercially prepared Streptavidin. Following staining on ice for 25 minutes, cells were washed with PBS/FCS and resuspended in 100 microliters and added to staining tubes containing 400 microliters of PBS. Samples were acquired and analyzed on a Coulter Excel Flow Cytometer.
In the Histogram analyses of FIGS. 4-6 the Y axis represents cell number of the 5000 live cells versus the X axis which is a reflection of relative Fitc fluorescence versus Streptavidin-PE (eBioscience, Cat. #12-4317) that will bind with high affinity to cell-bound biotinylated peptides. The distance between the histogram from the isotype control staining versus the histogram reflecting the specific stain and is a measure of level of cell surface CLIP or the biotinylated peptide when stained with Streptavidin on a population of live Raji or Daudi cells as indicated.

[2] = tested on: cell surface CD74 on Raji or Daudi cells; settings: 24 and 48 hours; cited from earlier work
[3] = tested on: cell surface CLIP on Raji or Daudi cells; settings: 24 and 48 hours; cited from earlier work
[4] = biological target: gp41 HIV-1 envelope protein (gp41 fragment) of Example 14 (HIV-1); experiment: native gel electrophoresis, quantitative analysis

| Substance | Cell surface bound CLIP (Fitc-Anti-CLIP) ([1]; 4 hours) | Cell surface bound CLIP (Fitc-Anti-CLIP) ([1]; 24 hours) | Cell surface CD74 levels [2] | Cell surface CLIP levels [3] | binding stoichiometry (TNP to gp41) (gp41 per 1 TNP (ratio 1:0.8)) [4] |
| --- | --- | --- | --- | --- | --- |
| FRIMAVLAS [SGG GAN SGF RIM AVL ASG GQY, unmodified form is MKN.4] | small decreases | significant decreases |  |  |  |
| SGG GKA LVQ NDT LLQ VKG (Biotin-SGGGKALVQNDTLLQVKG) [TNP1] | small decreases | significant decreases |  |  |  |
| SGG GSK MRM ATP LLM QAL Y [MKN1] |  |  | alters | alters |  |
| thymus nuclear protein (TNP) extract from calf thymus |  |  |  |  | 0.8 |
